This data set in a line: In vivo retention: plasma half-life in baboons by LC-MS/MS. Also on record: species or system baboon (P. Anubis). To be noted: P. Anubis, baboon (P. Anubis), in vivo, iv, 10 mg. As for the experimental part:
A 96-well plate HLB Oasis 10 mg (Waters, Milford, Mass.) was employed for extraction. The SPE material was conditioned by addition of 500 μl of methanol followed by addition of 500 μL of milli-Q water. Sample was prepared by addition of the internal standard followed by 1:1 dilution with 4% H3PO4. After loading the sample, washing was carried out with 500 μL of 5% methanol in 0.1% formic acid. Sample was eluted with 150 μL of 65% methanol in 0.1% formic acid and collected in the collection plate. Solvent was evaporated to dryness in a speed-vac concentrator and reconstituted in 5% acetonitrile in 0.1% formic acid. Samples were kept at −20° C. until analysis.
Baboon plasma samples, 40 μL, were mixed with internal standard and dissolved 1:1 with 40 mM ammonium carbonate buffer. Rapigest detergent was added to a final concentration of 0.1%. Disulfide bridges were reduced in 5 mM DTT for 30 min at 60° C. Alkylation of cysteines was done by addition of iodoacetamide to a final concentration of 15 mM and incubation for 30 min in dark. The sample was enzymatically digested by addition of 16 μL of a 1 μG/μL trypsin solution and incubation overnight at 37° C. After that, the sample pH was lowered with 5% TFA to induce detergent degradation. To avoid nonspecific adsorption of very hydrophobic peptides, acetonitrile was added to 20%. The samples were centrifuged at 6° C. and 14000 rpm for 30 min and the supernatant was diluted with 0.1% formic acid to reduce acetonitrile concentration to 10% prior to filtration with a 10 kDa cut-off microcon centrifugal filter (Millipore, Billerica, Mass.). The filter was washed with 50 μL of 10% ACN in 0.1% formic acid and the collected sample was evaporated to dryness and reconstituted with 10% ACN in 0.1% formic acid.
LC-MS/MS analysis was performed on a SYNAPT HDMS (Waters, Milford, Mass.) controlled by MassLynx 4.1 software (Waters) and equipped with a nanoESI source. Each sample was injected in triplicate. A nanoACQUITY UPLC (Waters) system was used for peptide separation by reversed-phase liquid chromatography. After injection, analytes were trapped for 3 min with 3% mobile phase A (0.1% formic acid in water) at 5 μl/min on a 5 μm Symmetry C18 column (180 μm×20 mm, Waters) and further separated on a 1.7 μm BEH130 C18 column (75 μm×150 mm, Waters). The analytical column temperature was held at 35° C. Peptides were separated at flow rate 0.3 μl/min. The gradient was linear 3-40% B (0.1% formic acid in acetonitrile), either 50 min long, or 60 min for the digested samples. The capillary voltage was 3.2 kV, the cone voltage was 35 V and the source temperature was 100° C. [Glu1]-fibrinogen peptide was used for lock-mass correction with a sampling rate of 30 s. Mass spectra were acquired in positive mode over an m/z range 400-2000 Da at scan rate 0.6 s. The time window used for the MS/MS function was ±3 min of the retention time of the selected peptide. The presence of the analyte was confirmed by MS/MS. Selectivity was studied by analysis of blank samples to determine the presence of any interference coeluting with the analyte.
Juvenile baboons (P. Anubis, Baboon Research Resources, University of Oklahoma) weighing 5-8 kg were used. Three baboons were used for the study; one for each compound. All animals received a bolus dose of peptides (10 mg) by injection through the peripheral vein. […]

As usually defined, the half-life is the time needed for the level to fall by half in the phase considered. A lower half-life goes with fast loss. In turn, `CC[C@H](C)[C@H](NC(=O)[C@@H]1CSSC[C@H](NC(=O)[C@@H](NC(C)=O)[C@@H](C)CC)C(=O)N[C@@H](C(C)C)C(=O)N[C@@H](Cc2cn(C)c3ccccc23)C(=O)N[C@@H](CCC(N)=O)C(=O)N[C@@H](CC(=O)O)C(=O)N[C@@H](Cc2c[nH]c3ccccc23)C(=O)N(C)CC(=O)N[C@@H](C)C(=O)N[C@@H](Cc2c[nH]cn2)C(=O)N[C@@H](CCCNC(=N)N)C(=O)N1)C(N)=O` [Peptide 17, Ac−Ic[CV(^1−MeW)QDW(^N−MeG)AHRC]I-NH2] had a half-life of approximately 1 h.

Values taken from patent US9371365B2, “Modified compstatin with peptide backbone and C-terminal modifications” (The Trustees of the University of Pennsylvania, priority 2009, dated 2016).
